Source: PMC5986058 (FEBS Open Bio, 2018)

What was measured:
[1] = molecular target: T1, LTAaj (L-threonine aldolase from Aeromonas jandaei; L-allo-threonine aldolase) (Aeromonas jandaei, UniProt O07051); assay: UV-vis spectroscopy of internal aldimine ([…]-420 nm); assay type: binding; conditions: 50 mM sodium phosphate pH 8.0, 22 °C; covalent Schiff base with K199
T1 construct: gene ltaA; C-terminal His-tag, expressed in E. coli BL21(DE3), Ni-NTA purified, homotetramer, PLP-dependent
T1 sequence (O07051 1-338): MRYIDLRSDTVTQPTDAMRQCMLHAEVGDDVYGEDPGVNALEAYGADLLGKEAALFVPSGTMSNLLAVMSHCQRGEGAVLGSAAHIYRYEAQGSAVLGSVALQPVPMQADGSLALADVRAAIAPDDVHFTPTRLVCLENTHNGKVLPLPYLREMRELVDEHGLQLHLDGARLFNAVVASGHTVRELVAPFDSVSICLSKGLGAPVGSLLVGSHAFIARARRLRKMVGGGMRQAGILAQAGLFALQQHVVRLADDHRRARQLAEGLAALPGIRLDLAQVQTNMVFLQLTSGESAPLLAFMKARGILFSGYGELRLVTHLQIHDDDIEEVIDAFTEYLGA

[2] = molecular target: T1, LTAaj (L-threonine aldolase from Aeromonas jandaei; L-allo-threonine aldolase); assay: UV-vis spectroscopy of external aldimine ([…] nm) and quinonoid ([…] nm); assay type: binding; conditions: 50 mM sodium phosphate pH 8.0, 22 °C, 0.1 M glycine; PLP enzyme; covalent

Cc1ncc(COP(=O)(O)O)c(C=O)c1O [PLP]
UV-vis spectroscopy of internal aldimine (410-420 nm) [1]: Formation of the (A) internal aldimine

NCC(=O)O [glycine]
UV-vis spectroscopy of external aldimine (420 nm) and quinonoid (495 nm) [2]: external aldimine with the glycine substrate in the wild type LTAaj and its mutants
